Data on 3 compounds can be found in ChEMBL document CHEMBL2177083, “Enhanced in vitro biological activity of synthetic 2-(2-pyridyl) ethyl isothiocyanate compared to natural 4-(methylsulfinyl) butyl isothiocyanate” (J Med Chem, 2012).

The source made the active and inactive calls. The rule behind the calls is not given here.

The subject of series [1] is PC-3. Description: Induction of p21 protein expression in human PC3 cells at 50 uM incubated for 8 hrs by Western blotting relative to untreated control. Format: functional, cell-based.
Series [2] can be described thus: Induction of p21 protein expression in human PNT1A cells at 50 uM incubated for 8 hrs by Western blotting. Type of series: cell-based.
The test system of series [3] is PC-3. Kind of series: Increase in p53 signaling pathway related gene expression in human PC3 cells at 10 uM incubated for 8 hrs by Affymetrix human exon array relative to untreated control. Type of series: functional.
Series [4] relates to PNT1A. Description: Increase in axon guidance related gene expression in human PNT1A cells at 10 uM incubated for 8 hrs by Affymetrix human exon array relative to untreated control. Format: functional.
In series [5] the test system is PC-3. Kind of series: Increase in DNA replication related gene expression in human PC3 cells at 10 uM incubated for 8 hrs by Affymetrix human exon array relative to untreated control. Format: functional.
The subject of series [6] is PC-3. Description: Increase in nucleotide excision repair related gene expression in human PC3 cells at 10 uM incubated for 8 hrs by Affymetrix human exon array relative to untreated control. Format: functional.
Series [7] deals with PC-3. Kind of series: Increase in pyrimidine metabolism related gene expression in human PC3 cells at 10 uM incubated for 8 hrs by Affymetrix human exon array relative to untreated control. Format: functional.
The test system of series [8] is PC-3. Description: Increase in ABC transporters related gene expression in human PC3 cells at 10 uM incubated for 8 hrs by Affymetrix human exon array relative to untreated control. Format: functional.
For series [9], the system named is PC-3. Description: Increase in homologous recombination related gene expression in human PC3 cells at 10 uM incubated for 8 hrs by Affymetrix human exon array relative to untreated control. Format: functional.
In series [10] the test system is PC-3. Description: Increase in mismatch repair related gene expression in human PC3 cells at 10 uM incubated for 8 hrs by Affymetrix human exon array relative to untreated control. Type of series: functional.
For series [11], the system named is PNT1A. Description: Increase in glutathione metabolism related gene expression in human PNT1A cells at 10 uM incubated for 8 hrs by Affymetrix human exon array relative to untreated control. Format: functional.
Series [12] has as its system PC-3. Kind of series: Increase in ErbB signaling pathway related gene expression in human PC3 cells at 10 uM incubated for 8 hrs by Affymetrix human exon array relative to untreated control. Format: functional.
Series [13] can be described thus: Binding affinity to insulin A chain N-terminal pentapeptide assessed as compound-insulin adduct formation by LC-MS method.
A short description of series [14]: Induction of p21 protein expression in human PNT1A cells at 10 uM incubated for 8 hrs by Western blotting. Format: cell-based.
For series [15], the system named is PC-3. Kind of series: Increase in TGF-beta signaling pathway related gene expression in human PC3 cells at 10 uM incubated for 8 hrs by Affymetrix human exon array relative to untreated control. Type of series: functional.
Series [16] concerns PC-3. Kind of series: Increase in lysine degradation related gene expression in human PC3 cells at 10 uM incubated for 8 hrs by Affymetrix human exon array relative to untreated control. Type of series: functional.
The subject of series [17] is PC-3. Kind of series: Induction of p21 protein expression in human PC3 cells at 10 uM incubated for 8 hrs by Western blotting in presence of 50 uM PI3K inhibitor LY294002 relative to untreated control. Type of series: functional.
The test system of series [18] is PC-3. Description: Increase in glycolysis/gluconeogenesis related gene expression in human PC3 cells at 10 uM incubated for 8 hrs by Affymetrix human exon array relative to untreated control. Type of series: functional.
The test system of series [19] is PC-3. Description: Increase in chronic myeloid leukemia related gene expression in human PC3 cells at 10 uM incubated for 8 hrs by Affymetrix human exon array relative to untreated control. Type of series: functional.
Series [20] has as its system PC-3. Description: Cytotoxicity against human PC3 cells incubated for 24 hrs by WST1 dye reduction assay. The conditions noted are these: PC-3, 24 h.
The subject of series [21] is PC-3. Kind of series: Increase in systemic lupus erythematosus related gene expression in human PC3 cells at 10 uM incubated for 8 hrs by Affymetrix human exon array relative to untreated control. Type of series: functional.
For series [22], the system named is PC-3. Description: Increase in prostate cancer related gene expression in human PC3 cells at 10 uM incubated for 8 hrs by Affymetrix human exon array relative to untreated control. Format: functional.
The test system of series [23] is PNT1A. Description: Increase in glycine, serine, and threonine metabolism related gene expression in human PNT1A cells at 10 uM incubated for 8 hrs by Affymetrix human exon array relative to untreated control. Format: functional.
The nature of series [24]: Antiproliferative activity against human PNT1A cells at 50 uM incubated for 24 hrs by BrdU incorporation assay. Type of series: cell-based.
Series [25] in a line: Binding affinity to insulin B chain N-terminal pentapeptide assessed as compound-insulin adduct formation by LC-MS method.
Series [26] deals with PC-3. Kind of series: Increase in cell cycle related gene expression in human PC3 cells at 10 uM incubated for 8 hrs by Affymetrix human exon array relative to untreated control. Type of series: functional.
Series [27] relates to PC-3. Description: Increase in alanine and aspartate metabolism related gene expression in human PC3 cells at 10 uM incubated for 8 hrs by Affymetrix human exon array relative to untreated control. Format: functional.
The subject of series [28] is PC-3. Description: Increase in base excision repair related gene expression in human PC3 cells at 10 uM incubated for 8 hrs by Affymetrix human exon array relative to untreated control. Format: functional.
For series [29], the system named is PNT1A. Description: Increase in systemic lupus erythematosus related gene expression in human PNT1A cells at 10 uM incubated for 8 hrs by Affymetrix human exon array relative to untreated control. Type of series: functional.
In a further series the test system is HepG2. Kind of series: Cytotoxicity against human HepG2 cells incubated for 24 hrs by WST1 dye reduction assay. As to conditions: HepG2, 24 h.
For series [30], the system named is PC-3. Kind of series: Inhibition of cell proliferation of human PC3 cells at 10 uM incubated for 24 hrs by BrdU incorporation assay. Type of series: functional. The conditions noted are these: PC-3, 24 h.
Series [31] relates to PNT1A. Description: Increase in apoptosis related gene expression in human PNT1A cells at 10 uM incubated for 8 hrs by Affymetrix human exon array relative to untreated control. Type of series: functional.
Series [32] deals with PC-3. Description: Increase in one carbon pool by folate related gene expression in human PC3 cells at 10 uM incubated for 8 hrs by Affymetrix human exon array relative to untreated control. Type of series: functional.
Series [33] concerns PC-3. Kind of series: Increase in glioma related gene expression in human PC3 cells at 10 uM incubated for 8 hrs by Affymetrix human exon array relative to untreated control. Type of series: functional.
Another series has as its system DU-145. Description: Cytotoxicity against human DU145 cells incubated for 24 hrs by WST1 dye reduction assay. As to conditions: DU-145, 24 h.
Series [34] has as its system PC-3. Description: Increase in aminoacyl-tRNA biosynthesis related gene expression in human PC3 cells at 10 uM incubated for 8 hrs by Affymetrix human exon array relative to untreated control. Format: functional.
Series [35] concerns PC-3. Kind of series: Increase in colorectal cancer related gene expression in human PC3 cells at 10 uM incubated for 8 hrs by Affymetrix human exon array relative to untreated control. Format: functional.
The subject of series [36] is PC-3. Kind of series: Increase in small cell lung cancer related gene expression in human PC3 cells at 10 uM incubated for 8 hrs by Affymetrix human exon array relative to untreated control. Format: functional.
The test system of series [37] is PC-3. Description: Increase in apoptosis gene expression in human PC3 cells at 10 uM incubated for 8 hrs by Affymetrix human exon array relative to untreated control. Type of series: functional.
The subject of a further series is Caco-2. Kind of series: Cytotoxicity against human Caco2 cells incubated for 24 hrs by WST1 dye reduction assay. As to conditions: Caco-2, 24 h.
Series [38] deals with PC-3. Description: Increase in epithelial cell signaling in Helicobacter pylori infection related gene expression in human PC3 cells at 10 uM incubated for 8 hrs pre-treated for 1 hr with 50 uM PI3K inhibitor LY294002 by Affymetrix human exon array relative to untreated control. Format: functional.
In series [39] the test system is PNT1A. Description: Increase in cytokine-cytokine receptor interaction related gene expression in human PNT1A cells at 10 uM incubated for 8 hrs by Affymetrix human exon array relative to untreated control. Type of series: functional.
The test system of series [40] is PC-3. As to conditions: Homo sapiens, 25 uM.
Description: Inhibition of cell proliferation of human PC3 cells at 25 uM incubated for 24 hrs by BrdU incorporation assay

In the case of `O=c1cc(N2CCOCC2)oc2c(-c3ccccc3)cccc12` [LY-294002], in the series with PC-3 [1], the outcome was Active. In addition, the Activity entry in series [2] is “Toxic”.

For `S=C=NCCc1ccccn1`, the “fold change (FC)” value with PC-3 [3] is recorded as 2.1; in the series on PNT1A [4] it was 1.9; in the series with PC-3 [5], 3.1; with PC-3 [6], 1.8; in the series on PC-3 [7], 1.6; in the series on PC-3 [8], 1.6. Moreover, the “fold change (FC)” value in the series with PC-3 [9] was 2.4; in the series with PC-3 [10], 2.6; in the series on PNT1A [11], 2.8; in the series on PC-3 [12], 1.6; with PC-3 [15] it was 1.5; with PC-3 [16], 1.8. For the same compound, the “fold change (FC)” value in the series on PC-3 [17] was 8; in the series with PC-3 [18], 1.6; in the series with PC-3 [19], 1.9; with PC-3 [21], 1.8; with PC-3 [22] it was 1.9; with PNT1A [23], 3.1. The “fold change (FC)” value in the series on PC-3 [26] amounted to 2.6; in the series on PC-3 [27], 2; with PC-3 [28] it was 2.1; in the series on PNT1A [29], 3.6; in the series with PNT1A [31], 2.5; in the series with PC-3 [32], 2.8. Also, the “fold change (FC)” value with PC-3 [33] came out at 1.9; in the series with PC-3 [34], 1.8; in the series with PC-3 [35], 1.5; in the series on PC-3 [36], 1.6; with PC-3 [37], 1.9; in the series with PC-3 [38], 1.6. For the same compound, the result in series [13] and in series [25] was Active. Moreover, the Activity entry in [14] and in series [24] was “Non-toxic” each time. The IC50 in the series with PC-3 [20] was 12.8 µM; in the series with HepG2, 15.3 µM; in the series on DU-145, 4.44 µM; in the series with Caco-2, 15.2 µM. Moreover, the inhibition at 10 µM in the series on PC-3 [30] was greater than 80%.

Consider `C[S+]([O-])CCCCN=C=S` (stereo not drawn) [SULFORAPHANE], for which the “fold change (FC)” value in the series with PNT1A [39] is on record as 3.3; in the series with PNT1A [29] it was 4.3; with PNT1A [31], 4.8. The inhibition entry in the series on PC-3 [40] was “Active”. In addition, the outcome in series [13] and in series [25] was Active. Besides, the Activity entry in series [14] and in [24] was “Non-toxic” throughout. For the same compound, the IC50 in the series with PC-3 [20] came to 32.4 µM; in the series with HepG2 it was 24.9 µM; in the series on DU-145, 13.8 µM; in the series with Caco-2, 79.8 µM.
